Assay results as given in US20230406840A1, “N-(2-(3-CYANO-2-AZABICYCLO[3.1.0]HEXAN-2-YL)-2-OXOETHYL)QUINOLINE-4-CARBOXAMIDES” (AstraZeneca AB, priority 2022, published 2023).
Converted amounts (≈) assume the structure as drawn.

Key:
[1] = target: human Fibroblast activation protein alpha (hFAP) (Homo sapiens (Human), UniProt Q12884); experiment: hFAP inhibition assay (tight binders); type: biochemical; details: tight-binder format, Ala-Pro-AMC 20 μM, 2.5 h incubation; n = 1 or geometric mean (n = 5-10)
Chain of human Fibroblast activation protein alpha (hFAP) (Q12884 38-760): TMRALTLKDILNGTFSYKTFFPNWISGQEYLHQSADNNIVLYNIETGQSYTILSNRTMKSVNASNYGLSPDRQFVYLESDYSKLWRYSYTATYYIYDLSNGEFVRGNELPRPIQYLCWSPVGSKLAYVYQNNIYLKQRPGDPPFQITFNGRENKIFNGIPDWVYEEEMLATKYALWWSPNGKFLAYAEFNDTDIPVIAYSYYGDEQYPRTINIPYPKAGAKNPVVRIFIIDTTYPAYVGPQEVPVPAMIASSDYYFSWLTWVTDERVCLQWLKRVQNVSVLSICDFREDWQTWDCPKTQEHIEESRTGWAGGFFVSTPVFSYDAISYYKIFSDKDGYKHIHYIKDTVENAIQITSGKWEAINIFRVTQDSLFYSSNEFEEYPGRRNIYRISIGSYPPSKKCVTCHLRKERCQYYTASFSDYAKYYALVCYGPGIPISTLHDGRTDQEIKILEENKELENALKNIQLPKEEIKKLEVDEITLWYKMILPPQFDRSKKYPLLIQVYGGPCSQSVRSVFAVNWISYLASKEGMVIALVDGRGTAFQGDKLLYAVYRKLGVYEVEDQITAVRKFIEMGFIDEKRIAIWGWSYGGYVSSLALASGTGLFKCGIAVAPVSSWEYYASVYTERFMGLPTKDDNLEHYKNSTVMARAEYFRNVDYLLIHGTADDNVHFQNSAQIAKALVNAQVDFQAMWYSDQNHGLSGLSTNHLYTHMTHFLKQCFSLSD
Experimental: Data were analyzed in Genedata Screener®.

[2] = target: Prolyl Oligopeptidase (hPREP) (Homo sapiens (Human), UniProt P48147); experiment: hPREP inhibition assay; type: biochemical; details: hPREP 0.6 nM, Z-Gly-Pro-amino-methylcoumarin 50 μM; read-out: PREP IC50
Chain of Prolyl Oligopeptidase (hPREP) (P48147 whole entry): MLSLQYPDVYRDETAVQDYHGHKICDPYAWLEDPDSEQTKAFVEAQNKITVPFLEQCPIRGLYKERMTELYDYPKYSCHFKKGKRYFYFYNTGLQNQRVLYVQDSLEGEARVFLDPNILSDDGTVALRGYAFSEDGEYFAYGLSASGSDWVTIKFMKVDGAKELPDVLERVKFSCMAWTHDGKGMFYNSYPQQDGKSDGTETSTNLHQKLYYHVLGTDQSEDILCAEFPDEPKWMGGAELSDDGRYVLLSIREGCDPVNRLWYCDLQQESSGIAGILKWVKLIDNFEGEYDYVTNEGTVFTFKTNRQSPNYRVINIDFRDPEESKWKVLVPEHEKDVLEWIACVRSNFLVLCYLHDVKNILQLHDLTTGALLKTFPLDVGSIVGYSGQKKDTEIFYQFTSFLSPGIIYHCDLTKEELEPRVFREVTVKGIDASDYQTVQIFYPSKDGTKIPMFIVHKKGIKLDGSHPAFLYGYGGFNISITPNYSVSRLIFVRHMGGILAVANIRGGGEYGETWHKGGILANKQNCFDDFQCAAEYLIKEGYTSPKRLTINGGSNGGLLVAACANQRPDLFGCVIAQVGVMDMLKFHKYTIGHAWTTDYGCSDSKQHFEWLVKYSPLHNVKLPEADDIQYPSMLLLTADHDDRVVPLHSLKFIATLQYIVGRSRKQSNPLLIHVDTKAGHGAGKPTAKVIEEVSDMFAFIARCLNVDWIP
Experimental: Compounds were tested in a biochemical inhibition assay using Prolyl endopeptidase, Prolyl Oligopeptidase (hPREP) enzyme at 0.6 nM FAC (R&D Systems, 4308-SE) and the substrate Z-Gly-Pro-amino-methylcoumarin (Bachem, I-1145) at 50 μM FAC. 384 Low volume black plates (Greiner #784076) were used. […] 4 μL, 100 μM substrate solution (25 mM Tris HCl, 250 mM NaCl, 0.01% Triton X-100, 5 mM Glutathione, pH 7.5) was added to each well. Plates were centrifuged at 1000 rpm and incubated for 20 min at rt in dark. […] Data were analyzed in Genedata Screener®.

[3] = Metabolic stability in human liver microsomes (HLM); type: in vitro ADME
Experimental: Metabolic stability in HLM was measured as described in J Comput Aided Mol Des 2015, 29, 795.

[4] = system: Rat Hepatocytes (rHep); experiment: Metabolic stability in rat hepatocytes (rHep); type: in vitro ADME
Experimental: Metabolic stability in rat hepatocytes was measured as described in J Comput Aided Mol Des 2015, 29, 795.

[5] = system: Human Hepatocytes (hHep); experiment: Metabolic stability in human hepatocytes (hHep); type: in vitro ADME
Experimental: Metabolic stability in human hepatocytes was measured as described in Xenobiotica 2010, 40, 637.

[6] = Kinetic solubility; type: physicochemical; details: kinetic from dmso stock
Experimental: Kinetic solubility was measured as described in Comput Aided Mol Des 2015, 29, 795.

[7] = target: hFAP (Homo sapiens (Human), UniProt Q12884);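 also: fluorescence read after incubating enzyme with substrate at room temperature, IC50 fitted from percent inhibition against log concentration with a one-site model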
Chain of hFAP (Q12884 38-760): as the sequence (Q12884 38-760) above

[8] = target: hFAP (M39-A757) (Homo sapiens (Human), UniProt Q12884)
Chain of hFAP (M39-A757) (Q12884 39-757): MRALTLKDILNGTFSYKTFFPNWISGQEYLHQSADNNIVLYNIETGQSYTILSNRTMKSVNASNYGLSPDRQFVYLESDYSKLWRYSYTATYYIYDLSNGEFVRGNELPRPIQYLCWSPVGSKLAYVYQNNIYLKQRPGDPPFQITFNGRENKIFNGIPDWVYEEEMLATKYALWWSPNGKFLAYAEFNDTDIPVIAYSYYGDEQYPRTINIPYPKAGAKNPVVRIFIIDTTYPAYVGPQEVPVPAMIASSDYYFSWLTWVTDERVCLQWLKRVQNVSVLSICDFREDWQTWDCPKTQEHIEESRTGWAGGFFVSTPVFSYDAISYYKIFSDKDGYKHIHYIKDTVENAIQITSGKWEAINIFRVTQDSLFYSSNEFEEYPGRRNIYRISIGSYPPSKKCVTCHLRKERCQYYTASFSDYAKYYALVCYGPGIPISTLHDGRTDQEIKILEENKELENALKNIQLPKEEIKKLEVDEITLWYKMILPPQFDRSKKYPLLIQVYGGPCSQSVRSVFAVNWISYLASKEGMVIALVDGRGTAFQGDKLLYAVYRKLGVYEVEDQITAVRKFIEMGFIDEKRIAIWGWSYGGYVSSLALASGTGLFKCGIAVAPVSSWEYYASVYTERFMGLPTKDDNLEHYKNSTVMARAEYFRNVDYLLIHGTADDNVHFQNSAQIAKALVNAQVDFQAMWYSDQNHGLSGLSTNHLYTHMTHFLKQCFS
Experimental: Compounds were tested in a direct binding assay using 8K surface plasmon resonance biosensor (GE Healthcare) at 20° C. Immobilization of hFAP (M39-A757) on a CMD200M sensor chip (Xantec) was performed using standard amine coupling procedure in immobilization buffer (10 mM HEPES, 150 mM NaCl, 0.05% Tween20, pH 7.4). The surface was washed with 10 mM NaOH, 1M NaCl before being activated with EDC/NHS (GE Healthcare), followed by immobilization of hFAP (in 10 mM Acetate pH 5.0). Finally, the surface was deactivated by ethanolamine. Immobilization levels of hFAP were around 4000-6000 RU. The reference spot was treated as described, omitting the injection of hFAP. Compound concentration series were injected over the immobilized protein in increasing concentrations (2-500 nM) using single cycle kinetics in running buffer (20 mM TRIS, 150 mM NaCl, 0.05% Tween20, 1% DMSO, pH 7.4). Interaction models were fitted globally to the experimental traces, enabling determination of kon, koff and Kd.

| IC50 [1] [nM] | IC50 [2] [µM] | microsomal CLint [3] [µL/min/mg] | rHeps CLint [4] [μL/min/1E6] | hHep CLint [5] [μL/min/1E6] | solubility [6] [µM] | IC50 [7] [nM] | Kd [8] [nM] | SMILES |
| --- | --- | --- | --- | --- | --- | --- | --- | --- |
| 20 | 44 | < 3 | 1.3 | <1 | 890 (≈ 314 µg/mL) | 71 |  | Cc1cc(C(=O)NCC(=O)N2[C@H](C#N)C[C@@H]3C[C@@H]32)c2ccc(F)cc2n1 [Example 8, N-(2-((1S,3S,5S)-3-Cyano-2-azabicyclo[3.1.0]hexan-2-yl)-2-oxoethyl)-7-fluoro-2-methylquinoline-4-carboxamide] |
| 0.4 | > 50 | < 3 | 5.3 |  | 970 (≈ 342 µg/mL) | 2.2 | 17 | N#C[C@@H]1C[C@@H]2C[C@@H]2N1C(=O)CNC(=O)c1ccnc2ccc(CF)cc12 [Example 11, N-(2-((1S,3S,5S)-3-Cyano-2-azabicyclo[3.1.0]hexan-2-yl)-2-oxoethyl)-6-(fluoromethyl)quinoline-4-carboxamide] |
| 0.75 | > 50 | 100 | 20 |  | 300 (≈ 114 µg/mL) | 3.8 | 13 | CC(C)(F)c1ccc2nccc(C(=O)NCC(=O)N3[C@H](C#N)C[C@@H]4C[C@@H]43)c2c1 [Example 12, N-(2-((1S,3S,5S)-3-Cyano-2-azabicyclo[3.1.0]hexan-2-yl)-2-oxoethyl)-6-(2-fluoropropan-2-yl)quinoline-4-carboxamide] |
| 0.86 | > 50 | < 3 | 2 | <1 | > 1000 | 3.8 |  | CC(C)(O)c1ccc2nccc(C(=O)NCC(=O)N3[C@H](C#N)C[C@@H]4C[C@@H]43)c2c1 [Example 13, N-(2-((1S,3S,5S)-3-Cyano-2-azabicyclo[3.1.0]hexan-2-yl)-2-oxoethyl)-6-(2-hydroxypropan-2-yl)quinoline-4-carboxamide] |
| 1.1 | > 50 | 30 | 9.4 | 3.3 | > 1000 | 16 |  | COC(C)c1ccc2nccc(C(=O)NCC(=O)N3[C@H](C#N)C[C@@H]4C[C@@H]43)c2c1 (stereo partly drawn) [Example 15, N-(2-((1S,3S,5S)-3-Cyano-2-azabicyclo[3.1.0]hexan-2-yl)-2-oxoethyl)-6-(1-methoxyethyl)quinoline-4-carboxamide] |
| 0.81 | > 50 | 72 | 21 |  | > 1000 | 4.2 | 20 | COC(C)(C)c1ccc2nccc(C(=O)NCC(=O)N3[C@H](C#N)C[C@@H]4C[C@@H]43)c2c1 [Example 16, N-(2-((1S,3S,5S)-3-Cyano-2-azabicyclo[3.1.0]hexan-2-yl)-2-oxoethyl)-6-(2-methoxypropan-2-yl)quinoline-4-carboxamide] |
| 0.38 | > 50 | 110 | 21 |  | 340 (≈ 142 µg/mL) | 1.7 | 8.5 | N#C[C@@H]1C[C@@H]2C[C@@H]2N1C(=O)CNC(=O)c1ccnc2ccc(COC(F)(F)F)cc12 [Example 17, N-(2-((1S,3S,5S)-3-Cyano-2-azabicyclo[3.1.0]hexan-2-yl)-2-oxoethyl)-6-((trifluoromethoxy)methyl)quinoline-4-carboxamide] |
| 0.97 | > 50 | 13 | 70 |  | 56 (≈ 21.3 µg/mL) | 2.8 | 10 | CC(C)(F)c1ccc2c(C(=O)NCC(=O)N3[C@H](C#N)C[C@@H]4C[C@@H]43)ccnc2c1 [Example 21, N-(2-((1S,3S,5S)-3-Cyano-2-azabicyclo[3.1.0]hexan-2-yl)-2-oxoethyl)-7-(2-fluoropropan-2-yl)quinoline-4-carboxamide] |
| 0.51 | > 50 | < 5.8 | 2.9 | <1 | > 1000 | 1.5 |  | N#C[C@@H]1C[C@@H]2C[C@@H]2N1C(=O)CNC(=O)c1ccnc2cc(C(F)F)ccc12 [Example 22, N-(2-((1S,3S,5S)-3-Cyano-2-azabicyclo[3.1.0]hexan-2-yl)-2-oxoethyl)-7-(difluoromethyl)quinoline-4-carboxamide] |
| 0.3 | > 45 | < 3 | 2.7 |  | > 1000 | 1.2 | 8.2 | N#C[C@@H]1C[C@@H]2C[C@@H]2N1C(=O)CNC(=O)c1ccnc2cc(CF)ccc12 [Example 24, N-(2-((1S,3S,5S)-3-Cyano-2-azabicyclo[3.1.0]hexan-2-yl)-2-oxoethyl)-7-(fluoromethyl)quinoline-4-carboxamide] |
| 2 | > 50 | 21 | 7.2 | 3.1 | > 1000 | 6 |  | COC(C)c1ccc2c(C(=O)NCC(=O)N3[C@H](C#N)C[C@@H]4C[C@@H]43)ccnc2c1 (stereo partly drawn) [Example 27, N-(2-((1S,3S,5S)-3-Cyano-2-azabicyclo[3.1.0]hexan-2-yl)-2-oxoethyl)-7-(1-methoxyethyl)quinoline-4-carboxamide] |
| 1.3 | > 50 | 36 | 5.2 |  | > 1000 | 4.6 | 7.8 | COC(C)(C)c1ccc2c(C(=O)NCC(=O)N3[C@H](C#N)C[C@@H]4C[C@@H]43)ccnc2c1 [Example 28, N-(2-((1S,3S,5S)-3-Cyano-2-azabicyclo[3.1.0]hexan-2-yl)-2-oxoethyl)-7-(2-methoxypropan-2-yl)quinoline-4-carboxamide] |
| 0.3 | > 50 | 8.9 | 81 |  | 23 (≈ 9.62 µg/mL) | 1.3 | 11 | N#C[C@@H]1C[C@@H]2C[C@@H]2N1C(=O)CNC(=O)c1ccnc2cc(COC(F)(F)F)ccc12 [Example 29, N-(2-((1S,3S,5S)-3-Cyano-2-azabicyclo[3.1.0]hexan-2-yl)-2-oxoethyl)-7-((trifluoromethoxy)methyl)quinoline-4-carboxamide] |
| 1.2 | > 50 | 160 | 20 | 15 | 850 (≈ 322 µg/mL) | 4.1 |  | CC(C)Oc1ccc2nccc(C(=O)NCC(=O)N3[C@H](C#N)C[C@@H]4C[C@@H]43)c2c1 [Example 34, N-(2-((1S,3S,5S)-3-Cyano-2-azabicyclo[3.1.0]hexan-2-yl)-2-oxoethyl)-6-isopropoxyquinoline-4-carboxamide] |
| 0.097 | > 50 | 90 | 16 | 12 | 590 (≈ 230 µg/mL) | 0.64 |  | N#C[C@@H]1C[C@@H]2C[C@@H]2N1C(=O)CNC(=O)c1ccnc2ccc(OCC3CC3)cc12 [Example 35, N-(2-((1S,3S,5S)-3-Cyano-2-azabicyclo[3.1.0]hexan-2-yl)-2-oxoethyl)-6-(cyclopropylmethoxy)quinoline-4-carboxamide] |
| 0.58 | > 50 | 180 | 92 |  | 210 (≈ 90 µg/mL) | 3.4 | 4.3 | N#C[C@@H]1C[C@@H]2C[C@@H]2N1C(=O)CNC(=O)c1ccnc2cc(C3(C(F)(F)F)CC3)ccc12 [Example 36, N-(2-((1S,3S,5S)-3-Cyano-2-azabicyclo[3.1.0]hexan-2-yl)-2-oxoethyl)-7-(1-(trifluoromethyl)cyclopropyl)quinoline-4-carboxamide] |
| 0.56 | > 50 | 260 | 67 |  | 820 (≈ 307 µg/mL) | 2.9 | 11 | CC1(c2ccc3nccc(C(=O)NCC(=O)N4[C@H](C#N)C[C@@H]5C[C@@H]54)c3c2)CC1 [Example 43, N-(2-((1S,3S,5S)-3-Cyano-2-azabicyclo[3.1.0]hexan-2-yl)-2-oxoethyl)-6-(1-methylcyclopropyl)quinoline-4-carboxamide] |
